Columns and labels:
[1] = system: AFB1-ScFV-AP bifunctional fusion protein; assay type: binding
[2] = system: DON-ScFV-AP bifunctional fusion protein; assay type: binding

Row | Molecule | IC50 [1] | IC50 [2] | cross-reaction (in words) [2]
1 | CC(=O)O[C@@H]1C[C@]2(C)[C@@]3(CO)[C@H](O)C(=O)C(C)=C[C@H]3O[C@H]1[C@@]21CO1 [3-ADON, 3-acetyldeoxynivalenol] | >100.1 ppm | 2.3 ppb | obvious cross-reaction
2 | CC(=O)OC[C@]12[C@H](O)C(=O)C(C)=C[C@H]1O[C@@H]1[C@H](O)C[C@@]2(C)[C@]12CO2 [15-ADON, 15-acetyldeoxynivalenol] | >100.4 ppm | 64 ppb | 
3 | CC1=C[C@H]2O[C@@H]3[C@H](O)C[C@](C)([C@@]2(CO)[C@H](O)C1=O)[C@]31CO1 [DON, Deoxynivalenol] | >10 ppm | 2.4 ppb | 
4 | CC1=C[C@H]2O[C@@H]3[C@H](O[C@@H]4O[C@H](CO)[C@@H](O)[C@H](O)[C@H]4O)C[C@](C)([C@@]2(CO)[C@H](O)C1=O)[C@]31CO1 [DON-3G, deoxynivalenol-3-glucoside] | >50 ppm |  | 
5 | CCCC[C@@H](C)[C@@H](OC(=O)C[C@@H](CC(=O)O)C(=O)O)[C@H](C[C@@H](C)C[C@H](O)CCCC[C@@H](O)C[C@H](O)[C@H](C)N)OC(=O)C[C@@H](CC(=O)O)C(=O)O [FB1, fumonisin B1] | >28.6 ppm |  | 
6 | CCCC[C@@H](C)[C@@H](OC(=O)C[C@@H](CC(=O)O)C(=O)O)[C@H](C[C@@H](C)CCCCCC[C@@H](O)C[C@H](O)[C@H](C)N)OC(=O)C[C@@H](CC(=O)O)C(=O)O [FB2, fumonisin B2] | >28.6 ppm |  | 
7 | CCCC[C@@H](C)[C@@H](OC(=O)C[C@@H](CC(=O)O)C(=O)O)[C@H](C[C@@H](C)C[C@H](O)CCCCCC[C@H](O)[C@H](C)N)OC(=O)C[C@@H](CC(=O)O)C(=O)O [FB3, fumonisin B3] | >28.6 ppm |  | 
8 | CC1=C[C@H]2O[C@@H]3[C@H](O)[C@@H](O)[C@](C)([C@@]2(CO)[C@H](O)C1=O)[C@]31CO1 [NIV, nivalenol] | >100.4 ppm | 610 ppb | 
9 | C[C@@H]1Cc2c(Cl)cc(C(=O)N[C@@H](Cc3ccccc3)C(=O)O)c(O)c2C(=O)O1 [OTA, ochratoxin A] | >1.9 ppm | >1.9 ppm | 
10 | C[C@H]1CCCC(=O)CCC/C=C/c2cc(O)cc(O)c2C(=O)O1 [ZEN, zearalenone] | >20 ppm | >20 ppm | 
11 | T-2 toxin | >100 ppm | >100 ppm | 
12 | aflatoxin B1 [AFB1] | 0.5 ppb | >2 ppm | 
13 | aflatoxin B2 [AFB2] | 1.9 ppb |  | 
14 | aflatoxin G1 [AFG1] | 2.1 ppb |  | 
15 | aflatoxin G2 [AFG2] | 8.1 ppb |  | 

— US12306178B2 (priority 2022, dated 2025)
